From ChEMBL document CHEMBL1135997, “Nonaromatic sulfonamide group as an ideal anchor for potent human carbonic anhydrase inhibitors: role of hydrogen-bonding networks in ligand binding and drug design” (J Med Chem, 2002)

How the values were obtained:
Carbonic anhydrase 2 = Carbonic anhydrase 2 (Homo sapiens, UniProt P00918)
Carbonic anhydrase 1 = Carbonic anhydrase 1 (Homo sapiens, UniProt P00915)
Chain of Carbonic anhydrase 1 (P00915 whole entry): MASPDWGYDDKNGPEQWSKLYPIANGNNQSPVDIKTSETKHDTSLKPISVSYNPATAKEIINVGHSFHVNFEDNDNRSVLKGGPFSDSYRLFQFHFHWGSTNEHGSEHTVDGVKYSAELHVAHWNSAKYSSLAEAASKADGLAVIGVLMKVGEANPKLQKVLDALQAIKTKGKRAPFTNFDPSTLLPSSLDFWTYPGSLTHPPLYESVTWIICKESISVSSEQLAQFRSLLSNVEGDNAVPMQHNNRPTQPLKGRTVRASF

Ki (Carbonic anhydrase 2) [nM] | Ki (Carbonic anhydrase 1) [nM] | SMILES
20 | – | C/C(=N/S(N)(=O)=O)c1ccc(N(C)C)cc1
900 | 80 | O=C(NS(=O)(=O)O)NS(=O)(=O)c1ccc(F)cc1
10 | 6 | NS(=O)(=O)NS(=O)(=O)c1cccc(C(=O)O)c1
20 | 6 | NS(=O)(=O)NC(=O)NS(=O)(=O)c1ccc(F)cc1
10 | 3 | NS(=O)(=O)NS(=O)(=O)c1c(F)c(F)c(F)c(F)c1F
1200 | 50 | O=S(=O)(O)NS(=O)(=O)c1c(F)c(F)c(F)c(F)c1F [(PENTAFLUOROPHENYL)SULFONYLSULFAMIC ACID]
